Test results from patent US11103486B2, “Treatment of autoimmune disorders and infections using antagonists of SGK1 activity” (THE JOHNS HOPKINS UNIVERSITY, priority 2011, dated 2021).
Where a SMILES comes first, the peptide text is derived from it. The star is where a group is joined. Cbz = O=C(OCc1ccccc1)*

Test system: JunB
Assay: JunB protein levels by immunoblot of nuclear extracts of CD4+ T cells activated under Th2 skewing conditions
Assay type: cell-based, mice
Conditions: T-SGK1−/− CD4+ T cells activated under Th2 skewing conditions; MG132 added during the final 2 hours of stimulation
Protocol: (11A) Nuclear and cytoplasmic extracts from Wt and T-SGK1−/− CD4+ T cells. Cells were purified by magnetic separation and stimulated for 72 hours in vitro with anti-CD3 and anti-CD28 and either (Th1) IL-12, IFN-γ, and anti-IL-4, or (Th2) IL-4, anti-IFN-γ, and anti-IL-12p40 skewing conditions. Cells were lysed and separated into nuclear and cytoplasmic fractions. Nuclear extracts were blotted for the expression of JunB, and Lamin B is included as a loading control. Cytosolic fractions were blotted to measure the E3 ligase activity of NEDD4L (S342), and actin is included as a loading control. (11B) Nuclear extract of Wt and T-SGK1−/− treated with MG132. As in A, but with the addition of the proteasome inhibitor MG-132 during the final 2 hours of stimulation. Nuclear fractions were blotted for JunB. (11C) Immunoprecipitates (IPs) of JunB from Wt and T-SGK1−/− CD4+ T cells skewed with IL4 and treated with MG132. As in B, but nuclear fractions were subject to IP with JunB antibody. […] Fold induction of long and short isoforms of TCF1 over no stimulation control, as analyzed by quantitative polymerase chain reaction. […] Cells were restimulated for 4 hours with phorbol 12-myristate 13-acetate (PMA) and ionomycin in the presence of a protein transport inhibitor, and analyzed for production of IFN-γ by intracellular staining. […]

## CC(C)C[C@@H](C=O)NC(=O)[C@H](CC(C)C)NC(=O)[C@H](CC(C)C)NC(=O)OCc1ccccc1 [MG132] (Cbz-Leu-Leu-Leu-aldehyde)
  JunB levels (immunoblot, nuclear fraction): JunB levels increased
